Test results published in patent US8802675B2, “Neuroprotective multifunctional compounds and pharmaceutical compositions comprising them” (priority 2009, dated 2014).
Values joined by “and” are separate entries in the source; they are usually repeats but may differ in a detail not shown here. Identical values can stand only once. Like-named read-outs stand apart in the source and are kept apart here.

Assays:
[1] = biological target: T1, rat brain cholinesterase (total ChE) (Rattus norvegicus, UniProt P37136); experiment: Kinetics of irreversible cholinesterase inhibition (Kitz-Wilson); type: biochemical
T1 construct: rows headed: Ki (dissociation constant for EI); other: rat brain total ChE; mean of 3-4 experiments; k+2 (carbamylation rate constant); other: from ki; rate of carba
T1 sequence (P37136 32-614): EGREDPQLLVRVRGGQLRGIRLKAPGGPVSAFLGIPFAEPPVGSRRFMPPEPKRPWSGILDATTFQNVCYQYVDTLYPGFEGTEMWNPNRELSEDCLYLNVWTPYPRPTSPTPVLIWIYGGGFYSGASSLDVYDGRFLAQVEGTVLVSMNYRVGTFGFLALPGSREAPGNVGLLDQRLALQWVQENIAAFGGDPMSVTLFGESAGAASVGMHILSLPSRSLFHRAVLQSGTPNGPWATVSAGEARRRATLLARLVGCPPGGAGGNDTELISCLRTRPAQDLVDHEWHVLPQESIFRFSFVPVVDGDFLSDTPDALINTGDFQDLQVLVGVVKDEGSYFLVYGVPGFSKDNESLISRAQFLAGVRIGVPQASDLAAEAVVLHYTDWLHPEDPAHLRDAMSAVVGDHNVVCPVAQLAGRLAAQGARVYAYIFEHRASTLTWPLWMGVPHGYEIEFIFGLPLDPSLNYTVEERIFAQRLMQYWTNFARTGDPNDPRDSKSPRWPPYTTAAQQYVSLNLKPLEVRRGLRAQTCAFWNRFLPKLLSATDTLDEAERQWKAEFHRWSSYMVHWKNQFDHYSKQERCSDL
Experimental: To determine kinetic constants of irreversible inhibition, cholinesterase from rat brain homogenates was incubated with the multifunctional compounds of the invention for designed time intervals in phosphate buffer pH 7.4.
The residual cholinesterase activity was immediately measured with the Ellman's colorimetric method after addition of 5,5′-dithiobis(2-nitrobenzoic) acid and 1 mM acetylthiocholine iodide. The inhibition kinetics were assessed according to Kitz-Wilson equation:
[formula] wherein: E represents the enzyme; I represents the intact carbamate (inhibitor); EI is the initial reversible enzyme complex; E* is the carbamylated enzyme; Ki represents the dissociation constant for EI; k+2 is the carbamylation rate constant and k+3 is the decarbamylation rate constant; kapp is the pseudo-first-order inhibition rate constant; ki, the second-order rate inhibition constant, is approximated by k+2/Ki. Under experimental condition [I]>>[E0].
According to equation (2), the logarithm of the ratio of the residual cholinesterase activity (E) and the initial cholinesterase activity (E0) is plotted against the time of incubation. The slopes of the lines representing kapp were determined by linear regression.
The slopes of the lines represent the pseudo-first-order inhibition rate constant (kapp) determined from linear regression analysis. […] The carbamylation rate constant (k+2) was obtained from the y-intercept, and the dissociation constant ([…] was obtained from the slope of the line multiplied by k+2 as described in Materials and Methods.
From these lines, the values of kapp were calculated based on Equation (2) of the Kitz-Wilson equations (see Material and Methods). […] The carbamylation rate constant k+2 is a measure of inactivation of ChE.

rat brain MAO-A = biological target: T2, rat brain MAO-A (Rattus norvegicus, UniProt P21396); experiment: biochemical; conditions: IC50 MAO-A, rat brain homogenate in vitro; mean SEM, n=3 in triplicates
T2 construct: from tissue; host or cells: rat brain homogenate
T2 sequence (P21396 1-526): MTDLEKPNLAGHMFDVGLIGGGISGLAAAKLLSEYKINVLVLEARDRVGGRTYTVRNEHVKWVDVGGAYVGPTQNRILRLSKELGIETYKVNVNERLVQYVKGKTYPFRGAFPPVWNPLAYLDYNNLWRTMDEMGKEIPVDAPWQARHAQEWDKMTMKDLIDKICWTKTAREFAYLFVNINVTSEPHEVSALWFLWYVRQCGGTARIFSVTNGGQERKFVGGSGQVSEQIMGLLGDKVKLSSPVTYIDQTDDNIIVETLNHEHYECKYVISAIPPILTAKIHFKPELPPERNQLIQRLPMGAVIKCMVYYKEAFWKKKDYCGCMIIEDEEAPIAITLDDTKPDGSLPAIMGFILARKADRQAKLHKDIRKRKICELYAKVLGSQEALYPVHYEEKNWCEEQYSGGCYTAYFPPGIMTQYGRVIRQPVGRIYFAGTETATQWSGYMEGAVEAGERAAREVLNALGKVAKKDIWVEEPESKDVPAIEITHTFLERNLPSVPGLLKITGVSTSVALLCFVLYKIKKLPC
Experimental: (§1) Rats were decapitated and the brains were quickly taken into a pre-weighted ice-cold sucrose buffer (10 mM Tris-HCl buffer, pH 7.4, containing 0.32 M sucrose), and their weights were measured. The brains were homogenized at 0-4° C. in 0.32 M sucrose (one part tissue to 20 parts sucrose) in a Teflon glass homogenizer. The resultant homogenates were used to determine MAO activity. Protein concentration was determined with Bradford reagent at 595 nm, using bovine serum albumin as a standard.
(§2) The activity of MAO-A and MAO-B were determined by the adapted method of Tipton & Youdim (Tipton et al. 1983). Briefly, the multifunctional compound tested was added to a suitable dilution of the enzyme preparation (70 μg MAO-B and 150 μg MAO-A) in 0.05 M phosphate buffer (pH 7.4). The mixture was incubated together with 0.05 μM 1-deprenyl, a specific inhibitor of MAO-B (for determination of MAO-A activity in the presence of the test compound) or 0.05 μM clorgyline a specific inhibitor of MAO-A (for determination of MAO-B activity). […] The reaction was stopped with 2M ice-cold citric acid, and the radioactive metabolites (5-hydroxytryptaldehyde and phenylacetaldehyde) were extracted by addition of 2 ml of ethylacetate/toluene (1:1 vol/vol). The radioactivity contained in the organic phase was determined by liquid-scintillation counting in cpm units.
(§3) MAO-A and MAO-B activities were determined in rat brain homogenate in vitro following incubation with varying concentrations of the test compounds.
(§4) The results are the mean SEM, n=3 in triplicates.

rat brain MAO-B = biological target: T3, rat brain MAO-B (Rattus norvegicus, UniProt P19643); experiment: biochemical; conditions: IC50 MAO-B, rat brain homogenate in vitro; mean SEM, n=3 in triplicates
T3 construct: from tissue; host or cells: rat brain homogenate
T3 sequence (P19643 1-520): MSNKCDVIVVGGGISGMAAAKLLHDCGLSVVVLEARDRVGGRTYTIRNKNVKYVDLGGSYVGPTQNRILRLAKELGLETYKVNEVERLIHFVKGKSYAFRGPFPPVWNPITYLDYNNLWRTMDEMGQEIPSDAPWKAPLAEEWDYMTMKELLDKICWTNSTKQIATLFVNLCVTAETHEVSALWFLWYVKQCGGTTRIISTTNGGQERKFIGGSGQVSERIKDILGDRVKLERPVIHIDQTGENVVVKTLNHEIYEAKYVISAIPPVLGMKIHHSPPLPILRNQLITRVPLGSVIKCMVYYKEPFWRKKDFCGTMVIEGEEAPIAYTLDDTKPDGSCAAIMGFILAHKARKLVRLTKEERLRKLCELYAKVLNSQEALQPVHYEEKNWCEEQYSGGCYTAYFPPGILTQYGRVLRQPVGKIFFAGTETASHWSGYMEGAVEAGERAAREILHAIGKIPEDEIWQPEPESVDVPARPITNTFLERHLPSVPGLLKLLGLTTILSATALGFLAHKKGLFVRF
Experimental: as §1, §2, §3, §4

[2] = biological target: T4, butyrylcholinesterase (BuChE) (Rattus norvegicus, UniProt Q9JKC1); experiment: Butyrylcholinesterase inhibition in rat brain homogenates (Ellman); type: biochemical; conditions: mean SEM, n=3 in triplicates
T4 construct: total cholinesterase (ChE) and butyrylcholinesterase (BuChE) activities in rat brain homogenates; from tissue; host or cells: brain homogenate (10% w/v) of adult Wistar rats
T4 sequence (Q9JKC1 24-597): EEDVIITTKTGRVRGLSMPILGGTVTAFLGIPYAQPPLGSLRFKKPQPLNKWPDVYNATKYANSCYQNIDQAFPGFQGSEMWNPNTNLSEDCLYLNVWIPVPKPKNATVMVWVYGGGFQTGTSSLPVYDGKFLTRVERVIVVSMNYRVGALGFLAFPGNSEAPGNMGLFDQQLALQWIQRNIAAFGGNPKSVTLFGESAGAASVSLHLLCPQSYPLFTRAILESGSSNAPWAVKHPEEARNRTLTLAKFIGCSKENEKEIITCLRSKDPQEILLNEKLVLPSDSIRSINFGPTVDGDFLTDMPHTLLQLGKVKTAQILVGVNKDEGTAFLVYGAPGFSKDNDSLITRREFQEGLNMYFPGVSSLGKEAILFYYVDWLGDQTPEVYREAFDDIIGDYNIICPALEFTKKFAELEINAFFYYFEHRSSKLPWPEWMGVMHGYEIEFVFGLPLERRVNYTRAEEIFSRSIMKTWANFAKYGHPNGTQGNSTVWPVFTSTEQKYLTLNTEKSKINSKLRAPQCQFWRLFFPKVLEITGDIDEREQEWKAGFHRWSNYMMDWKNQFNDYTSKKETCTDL
Experimental: (§5) Cholinesterase activity was determined in rat brain homogenate following incubation with varying concentrations of the multifunctional pro-chelators of the invention (also referred to herein as “carbamates”).
(§6) Ellman's colorimetric method was adapted for determination of total cholinesterase (ChE) and butyrylcholinesterase (BuChE) activities in rat brain homogenates. Brain tissue from adult Wistar rats was homogenized at 2% w/v (or 10% w/v, for BuChE) in 0.1 M sodium phosphate buffer, pH 7.4, with added NaCl 58.5 g/l and Triton X-100 0.05% v/v. Aliquots of homogenate (20 μl) were incubated with the test compounds for designed time intervals in phosphate buffer pH 7.4, before addition of 5,5′-dithiobis(2-nitrobenzoic) acid and either 1 mM acetylthiocholine iodide or 10 mM butyrylthiocholine iodide (Sigma, St. Louis, Mo.). The reaction was run at 37° C. in a final volume of […] in 96-well microplates and was followed at 412 nm for 5 min with a plate reader. In every experiment, cholinesterase-independent (nonspecific) substrate hydrolysis was determined by including one experimental group treated with tacrine 30 μM. Appropriate tissue and reagent blanks were also included. Reaction velocities were determined in three or four replicates per condition; these were averaged and expressed as percent activity relative to control (solvent), after subtracting the rate of nonspecific hydrolysis.
(§7) The results are the mean SEM, n=3 in triplicates. ND—not determined.

[3] = biological target: T5, total cholinesterase (ChE) (Rattus norvegicus, UniProt P37136); experiment: Total cholinesterase inhibition in rat brain homogenates (Ellman); type: biochemical; conditions: read-out: percent inhibition Total ChE
T5 sequence (P37136 32-614): T1 sequence (P37136 32-614)
Experimental: as §5, §6, §7

[4] = tested on: rat brain cholinesterase (total ChE); conditions: cited from earlier work

SMILES | potency in inhibiting ChE relative to rivastigmine ([1]; from ki) | kinact ([1]; pH 7.4, read-out: k+2 (carbamylation rate constant)) [s⁻¹] | kinact/KI ([1]; pH 7.4, read-out: ki (second-order rate inhibition constant, approximated by k+2/Ki)) [M⁻¹ s⁻¹] | IC50 (rat brain MAO-A) | IC50 (rat brain MAO-B) [nM] | IC50 [2] [nM] | inhibition at 1 µM [3] [%] | k+2 (carbamylation rate constant) ([4]; Data from ref.) | ki (second-order rate inhibition constant) ([4]; Data from ref.) | k+2 (carbamylation rate constant) ([4]; Data from ref., listed as rivastigmine) [min⁻¹] | Ki ([4]; rivastigmine, data from ref., read-out: Ki, affinity to total ChE) [nM]
C#CCN(C)Cc1ccc(OC(=O)N2CCCCC2)c2ncccc12 [Compound 6, 5-((methyl(propargyl)amino)methyl)quinolin-8-yl piperidine-1-carboxylate] | as potent | 0.00117 | 77.3 | 4.7 to 20 nM and 4.7 nM | 1860 | 45700 ± 5940 |  |  |  |  | 
CCN(C)C(=O)Oc1cccc([C@H](C)N(C)C)c1 [Rivastigmine, (S)-N-ethyl-N-methyl-3-[1-(dimethylamino)ethyl]-phenyl carbamate] |  |  |  |  |  |  | 62 | 0.25^b min^−1 | 4.54 × 10^3b M^−1 min^−1 | 0.25 | 55000
